Key:
lipoamide = compound: NC(=O)CCCCC1CCSS1 [lipoamide]; assay: thermal stability z-score vs DMSO; higher = more thermally stabilized by treatment; conditions: HeLa, lipoamide concentration 100 µM
Protocol: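 Cellular thermal proteome profiling in HeLa cells. Cells were treated with 100 µM lipoamide for 1 h, with or without 1 mM arsenate for a further 1 h, then heated to ten temperatures (37-66.3 °C), and soluble protein was quantified by TMT mass spectrometry relative to 0.1% DMSO controls. The thermal stability score (sum of log2 fold changes minus the abundance score) was transformed to a z-score; mean of n = 3 experiments.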

potassium arsenate = compound: O=[As]([O-])(O)O.[K+] [potassium arsenate]; assay: as above; conditions: HeLa; arsenate concentration 1 mM
Protocol: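 Cellular thermal proteome profiling in HeLa cells treated with 1 mM arsenate for 1 h (DMSO pretreatment), heated to ten temperatures (37-66.3 °C). Soluble protein was quantified by TMT mass spectrometry relative to DMSO controls; the thermal stability score was transformed to a z-score; mean of n = 3 experiments.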

[1] = arsenate co-treatment: 1 mM arsenate 1 h
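Also: each temperature applied for 3 min, abundance score taken as mean log2 fold change at the two lowest temperatures, z-score obtained by mean subtraction and division by SD.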

Chain of UniProt O76003 (O76003 whole entry): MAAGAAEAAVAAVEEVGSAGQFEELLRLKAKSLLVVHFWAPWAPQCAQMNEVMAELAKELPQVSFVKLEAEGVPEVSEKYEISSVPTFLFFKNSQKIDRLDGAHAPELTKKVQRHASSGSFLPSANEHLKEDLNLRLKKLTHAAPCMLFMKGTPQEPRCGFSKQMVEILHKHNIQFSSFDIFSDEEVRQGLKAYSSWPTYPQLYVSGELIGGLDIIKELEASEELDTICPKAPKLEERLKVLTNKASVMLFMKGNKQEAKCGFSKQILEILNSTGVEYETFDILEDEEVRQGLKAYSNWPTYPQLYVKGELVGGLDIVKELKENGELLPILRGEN
Chain of UniProt Q9Y223 (Q9Y223 whole entry): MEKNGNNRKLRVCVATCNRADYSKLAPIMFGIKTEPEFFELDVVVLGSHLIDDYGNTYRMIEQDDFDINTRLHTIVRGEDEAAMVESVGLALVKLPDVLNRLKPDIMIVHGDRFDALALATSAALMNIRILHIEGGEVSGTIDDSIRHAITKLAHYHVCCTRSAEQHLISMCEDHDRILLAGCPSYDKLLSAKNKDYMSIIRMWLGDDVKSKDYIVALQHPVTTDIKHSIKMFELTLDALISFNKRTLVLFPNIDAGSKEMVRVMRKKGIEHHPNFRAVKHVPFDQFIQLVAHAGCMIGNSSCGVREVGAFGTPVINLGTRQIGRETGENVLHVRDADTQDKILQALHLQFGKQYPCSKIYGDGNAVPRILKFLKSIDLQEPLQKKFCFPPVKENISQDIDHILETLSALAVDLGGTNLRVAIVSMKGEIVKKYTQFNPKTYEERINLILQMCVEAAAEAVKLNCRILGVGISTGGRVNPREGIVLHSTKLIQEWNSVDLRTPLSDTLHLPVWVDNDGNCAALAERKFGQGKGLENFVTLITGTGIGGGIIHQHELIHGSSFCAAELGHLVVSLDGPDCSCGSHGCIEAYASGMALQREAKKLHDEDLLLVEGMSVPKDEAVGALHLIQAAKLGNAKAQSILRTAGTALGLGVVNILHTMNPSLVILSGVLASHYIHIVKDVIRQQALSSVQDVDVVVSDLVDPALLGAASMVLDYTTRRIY
Chain of UniProt O75496 (O75496 whole entry): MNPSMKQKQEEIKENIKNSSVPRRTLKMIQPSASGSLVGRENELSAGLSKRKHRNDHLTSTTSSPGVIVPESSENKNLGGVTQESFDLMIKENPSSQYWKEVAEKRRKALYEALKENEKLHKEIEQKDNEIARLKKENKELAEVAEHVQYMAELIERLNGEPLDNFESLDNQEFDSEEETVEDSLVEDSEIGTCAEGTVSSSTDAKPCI
Chain of UniProt Q9H1C3 (Q9H1C3 whole entry): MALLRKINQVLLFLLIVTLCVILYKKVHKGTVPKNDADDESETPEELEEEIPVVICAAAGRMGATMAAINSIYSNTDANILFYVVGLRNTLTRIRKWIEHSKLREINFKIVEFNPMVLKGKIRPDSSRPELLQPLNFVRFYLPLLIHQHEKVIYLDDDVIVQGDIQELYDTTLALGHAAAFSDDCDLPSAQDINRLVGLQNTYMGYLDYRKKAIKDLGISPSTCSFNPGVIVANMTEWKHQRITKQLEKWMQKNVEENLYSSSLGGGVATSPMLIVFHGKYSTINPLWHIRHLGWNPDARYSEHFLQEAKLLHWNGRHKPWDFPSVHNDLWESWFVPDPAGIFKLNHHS
Chain of UniProt P60983 (P60983 whole entry): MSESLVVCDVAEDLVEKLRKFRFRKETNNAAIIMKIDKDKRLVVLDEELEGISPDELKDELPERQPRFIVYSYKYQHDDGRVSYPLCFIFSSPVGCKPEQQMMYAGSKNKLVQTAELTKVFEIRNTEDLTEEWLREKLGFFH
Chain of UniProt Q68CQ7 (Q68CQ7 whole entry): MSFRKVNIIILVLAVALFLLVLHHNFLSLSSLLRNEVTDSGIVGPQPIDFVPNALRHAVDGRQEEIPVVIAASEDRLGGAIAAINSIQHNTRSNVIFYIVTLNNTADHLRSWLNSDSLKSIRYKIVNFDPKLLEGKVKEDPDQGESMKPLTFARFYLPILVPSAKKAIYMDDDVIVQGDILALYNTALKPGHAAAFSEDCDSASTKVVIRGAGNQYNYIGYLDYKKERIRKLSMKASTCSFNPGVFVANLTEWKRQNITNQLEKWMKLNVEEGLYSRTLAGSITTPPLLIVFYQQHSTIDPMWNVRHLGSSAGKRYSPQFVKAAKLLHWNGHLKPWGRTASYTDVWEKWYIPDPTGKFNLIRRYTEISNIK
Chain of UniProt Q9P107 (Q9P107 whole entry): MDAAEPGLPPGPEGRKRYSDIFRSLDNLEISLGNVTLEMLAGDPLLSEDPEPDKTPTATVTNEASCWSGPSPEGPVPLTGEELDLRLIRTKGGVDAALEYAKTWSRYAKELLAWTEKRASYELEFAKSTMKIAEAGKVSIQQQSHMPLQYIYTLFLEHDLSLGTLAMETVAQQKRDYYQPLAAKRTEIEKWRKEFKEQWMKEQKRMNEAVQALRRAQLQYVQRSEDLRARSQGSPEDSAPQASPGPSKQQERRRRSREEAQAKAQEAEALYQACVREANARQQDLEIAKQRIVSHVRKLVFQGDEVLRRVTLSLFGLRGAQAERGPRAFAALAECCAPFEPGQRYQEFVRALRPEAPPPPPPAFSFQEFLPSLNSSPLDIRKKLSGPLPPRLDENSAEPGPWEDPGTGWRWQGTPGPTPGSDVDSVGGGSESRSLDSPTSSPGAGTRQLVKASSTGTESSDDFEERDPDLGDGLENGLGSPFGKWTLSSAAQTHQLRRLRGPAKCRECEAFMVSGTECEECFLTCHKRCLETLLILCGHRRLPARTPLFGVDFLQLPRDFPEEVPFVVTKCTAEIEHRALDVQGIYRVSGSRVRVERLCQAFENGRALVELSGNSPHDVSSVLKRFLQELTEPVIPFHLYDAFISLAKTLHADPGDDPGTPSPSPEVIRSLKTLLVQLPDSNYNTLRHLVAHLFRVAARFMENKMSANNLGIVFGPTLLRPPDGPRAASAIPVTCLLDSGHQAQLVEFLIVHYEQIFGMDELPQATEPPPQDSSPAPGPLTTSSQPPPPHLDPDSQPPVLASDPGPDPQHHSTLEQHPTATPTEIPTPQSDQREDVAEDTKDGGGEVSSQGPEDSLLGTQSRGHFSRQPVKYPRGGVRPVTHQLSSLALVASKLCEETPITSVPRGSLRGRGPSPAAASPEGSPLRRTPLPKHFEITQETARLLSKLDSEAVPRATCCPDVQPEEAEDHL
Chain of UniProt P49915 (P49915 whole entry): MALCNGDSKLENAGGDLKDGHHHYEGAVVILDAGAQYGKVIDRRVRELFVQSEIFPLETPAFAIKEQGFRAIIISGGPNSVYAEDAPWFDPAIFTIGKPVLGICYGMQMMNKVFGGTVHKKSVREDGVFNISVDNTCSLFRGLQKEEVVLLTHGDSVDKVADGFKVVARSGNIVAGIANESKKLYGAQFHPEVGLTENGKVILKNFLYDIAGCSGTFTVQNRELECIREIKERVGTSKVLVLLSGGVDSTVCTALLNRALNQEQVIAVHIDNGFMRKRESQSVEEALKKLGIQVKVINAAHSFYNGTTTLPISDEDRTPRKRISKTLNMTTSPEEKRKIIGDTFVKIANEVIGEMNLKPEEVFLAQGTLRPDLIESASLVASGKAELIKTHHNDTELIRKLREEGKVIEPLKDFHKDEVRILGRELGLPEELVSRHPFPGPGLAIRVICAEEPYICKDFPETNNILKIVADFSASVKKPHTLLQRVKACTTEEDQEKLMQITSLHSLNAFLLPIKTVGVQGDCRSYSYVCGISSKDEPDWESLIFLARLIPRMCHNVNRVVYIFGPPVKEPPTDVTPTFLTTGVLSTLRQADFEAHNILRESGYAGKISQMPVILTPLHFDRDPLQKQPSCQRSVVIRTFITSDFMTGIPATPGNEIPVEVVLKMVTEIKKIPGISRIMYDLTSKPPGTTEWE
Chain of UniProt P09471 (P09471 whole entry, looked up): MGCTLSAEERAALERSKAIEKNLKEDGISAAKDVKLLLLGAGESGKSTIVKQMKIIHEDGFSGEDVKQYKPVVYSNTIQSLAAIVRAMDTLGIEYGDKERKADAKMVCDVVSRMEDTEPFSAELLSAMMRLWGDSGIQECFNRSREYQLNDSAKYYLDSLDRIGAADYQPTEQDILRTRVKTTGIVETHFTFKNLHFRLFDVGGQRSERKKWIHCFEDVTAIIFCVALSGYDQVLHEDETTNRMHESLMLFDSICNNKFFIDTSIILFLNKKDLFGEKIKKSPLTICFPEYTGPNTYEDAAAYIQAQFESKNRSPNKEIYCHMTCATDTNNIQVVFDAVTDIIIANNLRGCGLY
Chain of UniProt Q9HC38 (Q9HC38 whole entry): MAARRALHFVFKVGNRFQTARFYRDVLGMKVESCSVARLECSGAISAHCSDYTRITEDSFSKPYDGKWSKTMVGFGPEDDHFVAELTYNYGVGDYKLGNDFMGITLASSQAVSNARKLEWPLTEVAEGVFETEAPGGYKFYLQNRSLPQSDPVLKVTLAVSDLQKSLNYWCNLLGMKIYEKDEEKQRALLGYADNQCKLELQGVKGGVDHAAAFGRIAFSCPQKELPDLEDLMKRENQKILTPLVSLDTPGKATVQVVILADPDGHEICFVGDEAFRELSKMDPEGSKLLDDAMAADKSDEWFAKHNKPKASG
Chain of UniProt Q9BYB4 (Q9BYB4 whole entry): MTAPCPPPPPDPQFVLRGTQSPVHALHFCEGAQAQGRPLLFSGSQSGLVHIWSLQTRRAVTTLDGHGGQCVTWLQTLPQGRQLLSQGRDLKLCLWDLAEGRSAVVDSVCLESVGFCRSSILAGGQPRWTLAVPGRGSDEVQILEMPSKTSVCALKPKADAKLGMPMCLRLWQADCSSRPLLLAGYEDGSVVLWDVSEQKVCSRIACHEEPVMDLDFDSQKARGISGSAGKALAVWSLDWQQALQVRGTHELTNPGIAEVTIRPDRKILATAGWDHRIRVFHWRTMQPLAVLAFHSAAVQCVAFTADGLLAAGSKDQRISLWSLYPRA
Chain of UniProt Q86SX6 (Q86SX6 whole entry): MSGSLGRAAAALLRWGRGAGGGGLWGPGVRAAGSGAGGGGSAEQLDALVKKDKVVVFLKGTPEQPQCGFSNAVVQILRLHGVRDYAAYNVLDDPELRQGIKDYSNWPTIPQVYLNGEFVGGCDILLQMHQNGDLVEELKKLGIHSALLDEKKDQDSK

Row | Target | thermal stability z-score (lipoamide; [1]) | thermal stability z-score (lipoamide; arsenate co-treatment: none) | thermal stability z-score (potassium arsenate)
1 | GLO1 (UniProt Q04760) | 1.12 | 0.739 | 1.62
2 | GLOD4 (UniProt Q9HC38) | 2.19 | 2.33 | 0.311
3 | GLRX2 (UniProt Q9NS18) | 1.4 | 1.7 | 3.8
4 | GLRX3 (UniProt O76003) | 0.153 | 0.465 | 0.88
5 | GLRX5 (UniProt Q86SX6) | 1.13 | -0.225 | -0.462
6 | GLS (UniProt O94925) | -0.371 | -0.00934 | 0.351
7 | GLT8D1 (UniProt Q68CQ7) | -0.426 | -0.593 | 0.145
8 | GLT8D2 (UniProt Q9H1C3) | -1.22 | -0.83 | -0.0179
9 | GLTP (UniProt Q9NZD2) | 0.912 | 0.581 | 0.72
10 | GLTSCR2 (UniProt Q9NZM5) | 0.409 | -0.522 | -2.53
11 | GLUD1 (UniProt P00367) | -1.37 | -0.412 | -0.578
12 | GLUL (UniProt P15104) | 0.732 | 0.282 | -1.16
13 | GLYR1 (UniProt Q49A26) | 0.0933 | -0.0315 | -0.145
14 | GMDS (UniProt O60547) | 0.538 | 0.00997 | -0.189
15 | GMEB1 (UniProt Q9Y692) | -0.239 | -0.0658 | 0.19
16 | GMEB2 (UniProt Q9UKD1) | 0.0462 | -0.00217 | 0.453
17 | GMFB (UniProt P60983) | 0.0996 | 0.368 | -0.675
18 | GMIP (UniProt Q9P107) | -0.232 | -0.0407 | -0.0798

Row | Target | thermal stability z-score (lipoamide; [1]) | thermal stability z-score (lipoamide; arsenate co-treatment: none) | thermal stability z-score (potassium arsenate)
19 | GMNN (UniProt O75496) | 0.365 | 0.809 | 0.576
20 | GMPPA (UniProt Q96IJ6) | -0.54 | -1.04 | -0.0973
21 | GMPPB (UniProt Q9Y5P6) | -0.503 | -0.625 | -0.104
22 | GMPR2 (UniProt Q9P2T1) | 0.37 | 0.368 | 0.121
23 | GMPS (UniProt P49915) | -0.853 | -0.447 | -0.42
24 | GNA11 (UniProt P29992) | 0.729 | 0.404 | -1.21
25 | GNA13 (UniProt Q14344) | 0.187 | 0.347 | -0.441
26 | GNAI1 (UniProt P63096) | 0.913 | 1.18 | 0.0642
27 | GNAI2 (UniProt P04899) | 0.83 | 0.313 | -0.276
28 | GNAI3 (UniProt P08754) | 0.0735 | 0.0764 | -1.24
29 | GNAO1 (UniProt P09471) | 0.151 | -0.44 | -0.313
30 | GNAQ (UniProt P50148) | -0.312 | 0.15 | -1.39
31 | GNAS | 0.278 | 0.172 | 0.0562
32 | GNB1 (UniProt P62873) | 0.979 | 0.0629 | -0.776
33 | GNB1L (UniProt Q9BYB4) | 0.757 | -0.25 | -0.589
34 | GNB2 (UniProt P62879) | 0.297 | 1.21 | -0.44
35 | GNB4 (UniProt Q9HAV0) | 0.329 | 0.753 | -0.65
36 | GNE (UniProt Q9Y223) | 0.652 | 0.274 | 0.317

From the supplement of paper PMC12463676, “Small-molecule dissolution of stress granules by redox modulation benefits ALS models” (Nature Chemical Biology, 2025)
